Data reported in paper PMC6918687, “Pharmacological inhibition of TAK1, with the selective inhibitor takinib, alleviates clinical manifestation of arthritis in CIA mice” (Arthritis Research & Therapy, 2019).

Assays:
CIA mice = experiment: Type II collagen-induced arthritis (CIA) mouse model: clinical arthritis score and body weight; assay type: in vivo, DBA/1 mice; conditions: for % Inhibition from Vehicle Disease (clinical score AUC): day 36
Experimental: The DBA/1 CIA model was conducted in accordance with The Guide for the Care & Use of Laboratory Animals (8th Edition) and therefore in accordance with all Bolder BioPATH IACUC approved policies and procedures. The Bolder Biopath IACUC approved a “blanket” IACUC protocol for this specific working protocol (BBP-001). No acceptable alternative test systems were identified for the animals used in this study. […] Clinical evaluation was performed under experimenter blinded conditions.
Collagen was prepared as a 4 mg/ml solution in 0.01 N acetic acid. Equal volumes of 4 mg/ml collagen and 5 mg/ml Freund’s complete adjuvant were emulsified by hand mixing with syringes for approximately 5 min, at which point a bead of this material holds its form when placed in water. On study days 0 and 21, animals were anesthetized with isoflurane and given intradermal injections of a total of 400 μg of type II collagen in Freund’s complete adjuvant at the base of the tail.
Mice were randomized by body weight into treatment groups on study day 18. Treatment was initiated following enrollment. On study day 36, the mice were euthanized for necropsy. Clinical scores were given for each of the paws (right front, left front, right rear, left rear) on study days 18–36. Experimenter was blinded from the treatment group during clinical evaluation and scoring.

RA-FLS cells [1] = experiment: Cytokine/chemokine proteome array, TNF-stimulated RA-FLS cells; assay type: cell-based, human; conditions: takinib 10 μM, TNF 30 ng/mL 24 h
Experimental: (§1) Rheumatoid arthritis fibroblast-like synoviocytes (RA-FLS) cells were prepared from surgical synovial samples at the University of Michigan as previously described. Cells were isolated from 4 individual patients (3 female, 1 male) and passaged no more than 2 times before use. Cells were cultured in CRML media, 10% FBS, 1% penicillin-streptomycin (PS), and 1% glutamate.
RA-FLS cells were activated by addition of LPS 10 ng/mL in the presence or absence of 10 μM takinib or DMSO. Twenty-four hours after treatment, supernatant was added to Human Cytokine proteome array (R&D Systems). Cytokine kit was conducted in accordance with manufacturer protocol. Chemiluminescence was used to visualize protein quantities.
(§2) Briefly, 10^6 cells were plated and either no treatment (naïve) or pretreated with takinib (10 μM) or vehicle (DMSO) for 30 min prior to stimulation with TNF (30 ng/mL) for 30 min at 37 °C in 5% CO2 for phospho-kinase assay (R&D Systems). NF-κB and cytokine assays were performed as previously described; however, cells were incubated for 24 h post-TNF (30 ng/mL) or LPS (10 ng/mL) stimulation.

RA-FLS cells [2] = experiment: Cytokine/chemokine proteome array, LPS-stimulated RA-FLS cells; assay type: cell-based, human; conditions: takinib 10 μM
Experimental: as §1
[…] Twenty-four hours after treatment, supernatant was added to Human Cytokine proteome array (R&D Systems). Cytokine kit was conducted in accordance with manufacturer protocol. Chemiluminescence was used to visualize protein quantities.

RA-FLS cells [3] = experiment: Phospho-kinase proteome array, TNF-stimulated RA-FLS cells; assay type: cell-based, human; conditions: takinib 10 μM, TNF 30 ng/mL 30 min, n=4
Experimental: as §1, §2

With `CCCn1/c(=N/C(=O)c2cccc(C(N)=O)c2)[nH]c2ccccc21` [takinib] the “% Inhibition from Vehicle Disease (clinical score AUC)” value (CIA mice; CIA DBA/1 mice, takinib 50 mg/kg i.p. daily) was 32%, the “% Inhibition from Vehicle Disease (clinical score AUC)” value (CIA mice; CIA DBA/1 mice, takinib 50 mg/kg i.p. daily, listed as Takinib) was 32% (p=0.08) and the “Mean Clinical Arthritic Score (AUC)” value (CIA mice; CIA DBA/1 mice, takinib 50 mg/kg i.p. daily, evaluated at day 36) was 14.19. The “less overall body weight loss compared to vehicle control” value (CIA mice; CIA mice, 50 mg/kg i.p. daily, at termination of the study, p = 0.009) was 50%, the “mean daily clinical arthritis scores vs vehicle disease control” value (CIA mice; CIA mice, 50 mg/kg i.p. daily, days 30–36) was “significantly differed” and the “GROα (CXCL1) secretion” value (RA-FLS cells [1]; p < 0.002) was “reduced”. For the same molecule, the ICAM secretion (RA-FLS cells [1]; p < 0.03) was “reduced”, the G-CSF secretion (RA-FLS cells [1]; p < 0.04) was “reduced” and the MIP-1α/MIP-1β secretion (RA-FLS cells [1]; p = 0.11) was “modest change”. The MIF protein level (RA-FLS cells [2]) was “No significant changes”, the “Serpin E1 protein level” value (RA-FLS cells [2]) was “No significant changes” and the CXCL1 level (RA-FLS cells [2]; p < 0.0003) was “significantly downregulated”. The CCL2 level (RA-FLS cells [2]; p < 0.0009) was “significantly downregulated”, the “reduction of IL-8” value (RA-FLS cells [2]; p < 0.006) was 57% and the “reduction of IL-6” value (RA-FLS cells [2]; p < 0.055) was 33%. For the same molecule, the “AMPKα1 phosphorylation, array signal, Mean” value (RA-FLS cells [3]) was 111.9564, the “AMPKα2 phosphorylation, array signal, Mean” value (RA-FLS cells [3]) was 187.6195 and the “Akt 1/2/3 (pS473) array signal, Mean” value (RA-FLS cells [3]) was 39.51. For the same molecule, the “Akt 1/2/3 (pT308) array signal, Mean” value (RA-FLS cells [3]) was 122.7503, the “CREB phosphorylation, array signal, Mean” value (RA-FLS cells [3]) was 232.3464 and the “Chk-2 phosphorylation, array signal, Mean” value (RA-FLS cells [3]) was 86.85. For the same molecule, the “EGF R phosphorylation, array signal, Mean” value (RA-FLS cells [3]) was 60.59, the “ERK1/2 phosphorylation, array signal, Mean” value (RA-FLS cells [3]) was 95.02 and the “FAK phosphorylation, array signal, Mean” value (RA-FLS cells [3]) was 142.7814. The “Fgr phosphorylation, array signal, Mean” value (RA-FLS cells [3]) was 41.73, the “Fyn phosphorylation, array signal, Mean” value (RA-FLS cells [3]) was 78.9 and the “GSK-3α/β phosphorylation, array signal, Mean” value (RA-FLS cells [3]) was 191.6206. For the same molecule, the “HSP27 phosphorylation, array signal, Mean” value (RA-FLS cells [3]) was 202.916, the “HSP60 array signal, Mean” value (RA-FLS cells [3]) was 40.313 and the “Hck phosphorylation, array signal, Mean” value (RA-FLS cells [3]) was 119.1771. For the same molecule, the “JNK 1/2/3 phosphorylation, array signal, Mean” value (RA-FLS cells [3]) was 100.6526, the “Lck phosphorylation, array signal, Mean” value (RA-FLS cells [3]) was 44.393 and the “Lyn phosphorylation, array signal, Mean” value (RA-FLS cells [3]) was 69.34. The “MSK1/2 phosphorylation, array signal, Mean” value (RA-FLS cells [3]) was 239.7188, the “PDGF Rβ phosphorylation, array signal, Mean” value (RA-FLS cells [3]) was 50.4425 and the “PLC-γ1 phosphorylation, array signal, Mean” value (RA-FLS cells [3]) was 34.4325. For the same molecule, the “PRAS40 phosphorylation, array signal, Mean” value (RA-FLS cells [3]) was 244.5596, the “PYK2 phosphorylation, array signal, Mean” value (RA-FLS cells [3]) was 87.75 and the “RSK1/2/3 phosphorylation, array signal, Mean” value (RA-FLS cells [3]) was 168.3928. The “STAT2 phosphorylation, array signal, Mean” value (RA-FLS cells [3]) was 200.5311, the “STAT3 (pS727) array signal, Mean” value (RA-FLS cells [3]) was 95.82 and the “STAT3 (pY705) array signal, Mean” value (RA-FLS cells [3]) was 85.93. The “STAT5a phosphorylation, array signal, Mean” value (RA-FLS cells [3]) was 99.7, the “STAT5a/b phosphorylation, array signal, Mean” value (RA-FLS cells [3]) was 146.267 and the “STAT5b phosphorylation, array signal, Mean” value (RA-FLS cells [3]) was 154.004. For the same molecule, the “STAT66 phosphorylation, array signal, Mean” value (RA-FLS cells [3]) was 147.8809, the “Src phosphorylation, array signal, Mean” value (RA-FLS cells [3]) was 176.3574 and the “TOR phosphorylation, array signal, Mean” value (RA-FLS cells [3]) was 129.6068. For the same molecule, the “WNK1 phosphorylation, array signal, Mean” value (RA-FLS cells [3]) was 218.9865, the “Yes phosphorylation, array signal, Mean” value (RA-FLS cells [3]) was 124.3601 and the “c-Jun phosphorylation, array signal, Mean” value (RA-FLS cells [3]) was 196.6019. The “eNOS phosphorylation, array signal, Mean” value (RA-FLS cells [3]) was 41.6005 and the “p27 phosphorylation, array signal, Mean” value (RA-FLS cells [3]) was 40.56.
